We go through eight compounds from patent US11208413B2, “Pyrimidopyrimidinones useful as wee-1 kinase inhibitors” (ALMAC DISCOVERY LIMITED, priority 2017, dated 2021).

Data set [1] in a line: Kinetic solubility. The format is physicochemical. Particulars: kinetic from dmso stock. How it is done: (§1) The test methods employed to determine Wee-1 kinase inhibitory effect, Wee-1 potency in cells and kinetic solubility were the same as those taught in WO 2015/092431 (see page 350 to 358). The other test methods employed were as follows: • i. Determination of Caco-2 permeability at pH 6.5 (pH7.4 for Comparative Example 6) was carried out at Cyprotex Ltd using standard protocols and SOPs. • ii. […] Dosing was as follows: single oral dose 5 mg/kg; single intravenous dose 1 mg/kg. • iii. Determination of pharmacokinetic parameters (CUT1/2/AUC/F %) in male Sprague-Dawley rats on Comparative Example 18 was carried out at BioDuro using standard protocols and SOPs. Dosing was as follows: oral dosing 5 mg/kg; intravenous dosing 1 mg/kg • iv. […] Dosing was as follows: repeated oral dose of 30 mg/kg, once a day for 7 days. Concentrations were measured at 4 h post dose on day 7. • v. Determination of tumor:plasma concentration ratio in the tumor-bearing mouse was carried out at Axis Bioservices Ltd using standard protocols and SOPs. Dosing was as follows: single oral dose of 30 mg/kg. • vi. Determination of CYP3A4/5 time-dependent inhibition (CYP3A4/5 IC50 shift value) was carried out at Cyprotex Ltd using standard protocols and SOPs. The in-vitro test system was: pooled human liver microsomes; a 30-min preincubation step with and without NADPH was included to observe the IC50 shift. • vii. Determination of the formation of reactive metabolites was carried out at Admescope Ltd using standard protocols and SOPs. The in-vitro test system was: human hepatocytes; the duration of incubation was: 2 hours; the technique for metabolite analysis was: LC-MS/MS.

The target in data set [2] is Wee-1 kinase (Homo sapiens, UniProt P30291). Nature of the data set: Wee-1 kinase inhibitory effect (Wee-1 IC50). It counts as biochemical. The following applies: read-out: Wee1 IC50.
Data set [3] relates to pCDC2. Nature of the data set: Wee-1 potency in cells (pCDC2 value). It counts as cell-based.
Data set [4] is described as follows: Rat pharmacokinetics (CL, T1/2, AUC, F %). It counts as in vivo. Particulars: male Sprague-Dawley rats; for clearance: single intravenous dose 1 mg/kg, plasma clearance, read-out: Rat PK CL; for AUC(0-inf): single oral dose 5 mg/kg, plasma exposure, read-out: Rat PK AUCinf; for bioavailability / half-life: plasma, intravenous 1 mg/kg; for bioavailability: oral 5 mg/kg, oral bioavailability, read-out: Rat PK F %; for half-life: elimination half-life, read-out: Rat PK T1/2 (converted). On the procedure:
as §1

The nature of data set [5]: Caco-2 permeability (Papp A-B). It counts as in vitro ADME. Particulars: human. On the procedure: as §1
Data set [6] in a line: Tumor:plasma concentration ratio in tumor-bearing mouse. The format is in vivo. The following applies: single oral dose 30 mg/kg, read-out: Mouse tissue distribution tumor/plasma ratio. How it is done: as §1, with “Determination of the formation of reactive metabolites was carried out at Admescope Ltd using standard protocols and SOPs. The in-vitro test system was: human hepatocytes; the duration of incubation was: 2 hours; the technique for metabolite analysis was: LC-MS/MS.” left out

Data set [7] can be described thus: Chemical stability in solution. It counts as physicochemical. The following applies: Buffer at pH 7.4 and in DMSO.
The nature of data set [8]: Brain:plasma concentration ratio in healthy mouse. It counts as in vivo. Particulars: oral 30 mg/kg once a day for 7 days, 4 h post dose on day 7, read-out: Mouse tissue distribution brain/plasma ratio. How it is done:
as §1, with “Determination of the formation of reactive metabolites was carried out at Admescope Ltd using standard protocols and SOPs. The in-vitro test system was: human hepatocytes; the duration of incubation was: 2 hours; the technique for metabolite analysis was: LC-MS/MS.” left out

Data set [9] can be described thus: Solubility in fasted state simulated gastric fluid (FaSSGF). The format is physicochemical.
In data set [10] the test system is human hepatocytes. Nature of the data set: Formation of reactive metabolites in human hepatocytes. It counts as in vitro ADME. Particulars: 2 hours incubation, LC-MS/MS. On the procedure:
as §1, with “Determination of the formation of reactive metabolites was carried out at Admescope Ltd using standard protocols and SOPs. The in-vitro test system was: human hepatocytes; the duration of incubation was: 2 hours; the technique for metabolite analysis was: LC-MS/MS.” left out

In data set [11] the test system is CYP3A4/5. Nature of the data set: CYP3A4/5 time-dependent inhibition (IC50 shift). The format is in vitro ADME. Particulars: pooled human liver microsomes, 30-min preincubation with and without NADPH. How it is done:
as §1, with “Determination of the formation of reactive metabolites was carried out at Admescope Ltd using standard protocols and SOPs. The in-vitro test system was: human hepatocytes; the duration of incubation was: 2 hours; the technique for metabolite analysis was: LC-MS/MS.” left out

Where [12] appears, read: pH 6.5, read-out: caco-2 Papp A-B pH 6.5.

Values after ≈ are worked out from the molar mass of the structure shown. Read-outs that look alike come from different tables or passages of the source.

Sequence of Wee-1 kinase (P30291 whole entry): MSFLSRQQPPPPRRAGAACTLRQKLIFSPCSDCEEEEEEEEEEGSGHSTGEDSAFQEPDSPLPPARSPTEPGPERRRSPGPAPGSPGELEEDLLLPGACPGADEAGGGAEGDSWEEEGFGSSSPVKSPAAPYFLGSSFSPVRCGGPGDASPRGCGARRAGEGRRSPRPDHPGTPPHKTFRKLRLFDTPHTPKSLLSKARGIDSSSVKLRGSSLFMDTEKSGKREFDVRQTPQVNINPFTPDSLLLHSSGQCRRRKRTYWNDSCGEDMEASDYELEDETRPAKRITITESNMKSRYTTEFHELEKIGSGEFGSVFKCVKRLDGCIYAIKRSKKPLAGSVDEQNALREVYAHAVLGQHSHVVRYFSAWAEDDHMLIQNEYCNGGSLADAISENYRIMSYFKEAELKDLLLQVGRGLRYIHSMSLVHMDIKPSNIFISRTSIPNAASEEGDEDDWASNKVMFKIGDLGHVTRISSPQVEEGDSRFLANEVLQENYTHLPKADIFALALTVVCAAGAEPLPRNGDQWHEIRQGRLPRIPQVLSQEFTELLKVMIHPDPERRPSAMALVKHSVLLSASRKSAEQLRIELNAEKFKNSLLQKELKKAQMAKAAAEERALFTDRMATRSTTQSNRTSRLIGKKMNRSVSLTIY

The compound `COc1cc(Nc2ncc3c(n2)N(C)CN(c2c(Cl)cccc2Cl)C3=O)ccc1C1CCN(C)CC1` [CE 183] displayed a solubility (kinetic) in data set [1] of 60 µM (≈ 31.6 µg/mL). For the same compound, the IC50 in [2] is 3.1 nM. In addition, in data set [3], a half-maximal response (EC50) required 502 nM.

`Cc1cc(Nc2ncc3c(n2)N(C)CN(c2c(C)cccc2Cl)C3=O)ccc1C1CCN(C)CC1` [CE 1, 3-(2-chloro-6-methylphenyl)-1-methyl-7-((3-methyl-4-(1-methylpiperidin-4-yl)phenyl)amino)-2,3-dihydropyrimido[4,5-d]pyrimidin-4(1H)-one] registered a solubility (kinetic) in [1] of 189 µM (≈ 92.8 µg/mL). Moreover, in data set [2], the IC50 was 2.8 nM. The compound also returned an EC50 in [3] of 695 nM.

On to `Cc1cc(Nc2ncc3c(n2)N(C)CN(c2c(Cl)cccc2Cl)C3=O)ccc1C1CCNCC1` [CE 18], for which the kinetic solubility in data set [1] amounted to 200 µM (≈ 99.5 µg/mL). Further, in [2], the IC50 is 3.7 nM. The same compound yielded an EC50 in data set [3] of 223 nM. Besides, in data set [4], the clearance amounted to 48 mL/min/kg, the AUC(0-inf) was 120 ng·h/mL and the bioavailability was determined as 7%. Also, the Papp A→B in data set [5] (setting [12]) came out at 0.3 ×10⁻⁶ cm/s.

With `CN1CCC(c2ccc(Nc3ncc4c(n3)N(C)CN(c3c(Cl)cccc3Cl)C4=O)cc2)CC1` [CE 95], in data set [1], the solubility (kinetic) turned out to be 123 µM (≈ 61.2 µg/mL). Moreover, in [2], the IC50 stood at 7.9 nM. Besides, it took 378 nM to reach a half-maximal effect in data set [3] (EC50).

On to `CN1CCC(c2ccc(Nc3ncc4c(n3)N(C)CN(c3c(Cl)cccc3Cl)C4=O)cc2CO)CC1` [CE 165], for which the kinetic solubility in [1] is 194 µM (≈ 102 µg/mL). The IC50 in [2] stood at 3.1 nM. The compound also displayed an EC50 in data set [3] of 347 nM. In data set [4], the clearance came to 27 mL/min/kg, the AUC(0-inf) turned out to be 397 ng·h/mL, the half-life was 2.1 h and the bioavailability is 8%. In addition, the Papp A→B in data set [5] (setting [12]) stood at 0.3 ×10⁻⁶ cm/s.

The compound `Cc1cc(Nc2ncc3c(n2)N(C)CN(c2c(Cl)cccc2Cl)C3=O)ccc1C1CCN(C)CC1` [Example 1, 3-(2,6-dichlorophenyl)-1-methyl-7-((3-methyl-4-(1-methylpiperidin-4-yl)phenyl)amino)-2,3-dihydropyrimido[4,5-d]pyrimidin-4(1H)-one] returned a kinetic solubility in data set [1] of 215 µM (≈ 110 µg/mL). Moreover, the Kp in data set [6] turned out to be 4. Also, in [7], the “chemical stability in solution” value is recorded as “improved chemical stability in solution”. For the same compound, the Kp at 4 h in data set [8] was 0.69. Moreover, in data set [4], the clearance is 14 mL/min/kg, the AUC(0-inf) stood at 1320 ng·h/mL, the half-life is 4.5 h and the bioavailability was 35%. For the same compound, in data set [9], the “solubility in fasted state simulated gastric fluid (FaSSGF)” value is listed as “improved solubility”. Moreover, the Reactive metabolite detected result in data set [10] is “no”. The Papp A→B in [5] (setting [12]) worked out at 8.9 ×10⁻⁶ cm/s.

Take `Cc1cc(Nc2ncc3c(n2)N(C)CN(c2c(Cl)cccc2Cl)C3=O)ccc1N1CCNCC1` [CE 6]: in data set [1], the kinetic solubility is 170 µM (≈ 84.7 µg/mL). Moreover, in data set [6], the Kp worked out at 5.7. Also, the IC50 in data set [2] came to 2.7 nM. Besides, the EC50 in [3] came out at 223 nM. Also, the Kp at 4 h in [8] was 0.16. In data set [4], the clearance turned out to be 26 mL/min/kg, the AUC(0-inf) was found to be 1360 ng·h/mL, the half-life is 3.7 h and the bioavailability is 41%. In addition, the “CYP3A4/5 IC50 shift” value in [11] is reported as 2.3-3.0. Further, the Reactive metabolite detected result in data set [10] was “yes”. Besides, the Papp A→B in data set [5] (pH 7.4, read-out: caco-2 Papp A-B (pH 7.4)) was found to be 6.6 ×10⁻⁶ cm/s.

Take `Cc1cc(Nc2ncc3c(n2)N(C)CN(c2c(Cl)cccc2Cl)C3=O)ccc1C1=CCN(C)CC1` [CE 178]: the solubility (kinetic) in data set [1] stood at 55 µM (≈ 28 µg/mL). Further, in [2], the IC50 amounted to 3.2 nM. This compound also gave an EC50 in data set [3] of 371 nM. Further, in [5] (setting [12]), the Papp A→B turned out to be 8.1 ×10⁻⁶ cm/s.
